This is an account of results in PMC6264179, “Triterpenoids from the Roots of Sanguisorba tenuifolia var. Alba” (Molecules, 2011).

The structures appear in SMILES notation.

In this assay the target is α-Glucosidase (EC.3.2.1.20). Kind of assay: α-Glucosidase inhibition assay (p-nitrophenyl-α-D-glucopyranoside substrate, absorbance at 405 nm). The assay is classed as biochemical. Conditions: in vitro; pH 6.8 phosphate buffer, 37 °C, 15 min; acarbose positive control; read-out: IC50 (mM ± SEM, mM), α-glucosidase inhibitory activity. As to the method: Open column chromatography (CC) was carried out using silica gel (200-300 mesh, Qingdao Marine Chemical Co., Qingdao, China) or octadecyl silica gel (ODS, 25-40 μm, Fuji) as stationary phases. TLC employed precoated silica gel plates (5-7 μm, Qingdao Marine). Preparative HPLC was carried out on a Waters 600 instument equipped with a Waters UV-2487 detector. A Waters Sunfire prep C18 OBD (19 × 250 mm i.d.) column was used for this purpose. The IR spectra were recorded as KBr pellets on a Jasco 302-A spectrometer. Optical rotation was recorded on a Jasco P-2000 polarimeter. HRESIMS were measured on a FTMS-7 instrument (Bruker Daltonics). Melting points were determined on a Gallenkemp apparatus and are uncorrected. The ^1H-, ^13C- and 2D (^1H-^1H COSY, HSQC, HMBC, NOESY) NMR spectra were recorded on a Bruker AMX-400 spectrometer using standard pulse sequences. Chemical shifts are reported in ppm (δ), and scalar coupling are reported in Hz. GC analyses were carried out using a Fuli 9790 instrument equipped with a DM-5 column (0.25 μm, 30 m × 0.25 mm, Dikma, China). α-Glucosidase (EC.3.2.1.20) from Saccharomyces sp. was purchased from Wako Pure Chemical Indutries Ltd. (Wako 076-02841). Other reagents were purchased from various commercial sources.
α-Glucosidase (EC.3.2.1.20) enzyme inhibition assay has been performed according to the literature. α-Glucosidase (25 μL, 0.2 U/mL), various concentrations of samples (25 μL), and 67 mM phosphate buffer (pH 6.8, 175 μL) were mixed at room temperature for 10 min. Reactions were initiated by the addition of 23.2 mM p-nitrophenyl-α-D-glucopyranoside (25 μL). The reaction mixtures were incubated at 37 °C for 15 min in a final volume of 250 μL, and then 1 M Na2CO3 (50 μL) was added to the incubation solution to stop the reaction. The activities of glucosidase were detected in a 96-well plate, and the absorbance was read at 405 nm by a microplate spectrophotometer (Spectra Max, Molecular Devices, USA). The negative control was prepared by adding phosphate buffer instead of the sample in the same way as the test. […] The blank was prepared by adding phosphate buffer instead of α-glucosidase using the same method. The inhibition rates (%) were calculated from the following formula:
[(ODnegative control− ODblank) − (ODtest− ODtest blank)] / ([…]− ODblank) × 100%
Consider `CC1(C)CCC2(C(=O)OC3OC(CO)C(O)C(O)C3O)CCC3(C)C(=CCC4C5(C)CC(=O)C(O)C(C)(C)C5CCC43C)C2C1O` [Compound 1, 2-oxo-3β,19α-dihydroxyolean-12-en-28-oic acid β-D-gluco-pyranosyl ester], for which the IC50 was found to be 1.88 ± 0.28 mM.

Take `C[C@@H]1CC[C@]2(C(=O)O)CC[C@]3(C)C(=CCC4[C@@]5(C)CC(=O)[C@H](O)C(C)(C)C5CC[C@]43C)C2[C@@]1(C)O` (some centres unmarked) [Compound 2, 2-oxopomolic acid]: the 50% inhibitory concentration (IC50) is 1.35 ± 0.04 mM.

For the compound `C[C@@H]1CC[C@]2(C(=O)O[C@@H]3O[C@H](CO)[C@@H](O)[C@H](O)[C@H]3O)CC[C@]3(C)C(=CCC4[C@@]5(C)CC(=O)[C@H](O)C(C)(C)C5CC[C@]43C)C2[C@@]1(C)O` (stereo partly drawn) [Compound 3, 2-oxopomolic acid β-D-glucopyranoside], the IC50 is 2.22 ± 0.06 mM.

For the compound `CC1CCC2(C(=O)OC3OC(CO)C(O)C(O)C3O)CCC3(C)C(=CCC4C5(C)CC(O)C(=O)C(C)(C)C5CCC43C)C2C1(C)O` [Compound 4, 2α,19α-dihydroxy-3-oxo-12-ursen-28-oic acid β-D-glucopyranosyl ester], the IC50 came to 1.56 ± 0.04 mM.

In the case of `C[C@@H]1CC[C@]2(C(=O)O)CC[C@]3(C)C(=CCC4[C@@]5(C)C[C@@H](O)C(=O)C(C)(C)C5CC[C@]43C)C2[C@@]1(C)O` (stereo partly drawn) [Compound 5, 2α,19α-dihydroxy-3-oxo-12-ursen-28-oic acid], the IC50 is 1.23 ± 0.09 mM.

In the case of `CC1(C)C(=O)[C@H](O)C[C@@]2(C)C1CC[C@]1(C)C2CC=C2C3[C@@H](O)C(C)(C)CC[C@]3(C(=O)O[C@@H]3O[C@H](CO)[C@@H](O)[C@H](O)[C@H]3O)CC[C@]21C` (stereo partly drawn) [Compound 6, 2α,19α-dihydroxy-3-oxo-olean-12-en-28-oic acid β-D-glucopyranosyl ester], the IC50 was 2.01 ± 0.06 mM.

In the case of `C[C@@H]1CC[C@]2(C(=O)O[C@@H]3O[C@H](CO)[C@@H](O)[C@H](O)[C@H]3O)CC[C@]3(C)C(=CCC4[C@@]5(C)C[C@@H](O)[C@H](O)C(C)(C)C5CC[C@]43C)C2[C@@]1(C)O` (some centres unmarked) [Compound 7, rosamutin], the half-maximal inhibitory concentration (IC50) came out at 3.28 ± 0.08 mM.

Consider `C[C@@H]1CC[C@]2(C(=O)O)CC[C@]3(C)C(=CC[C@@H]4[C@@]5(C)C[C@@H](O)[C@@H](O)C(C)(C)[C@@H]5CC[C@]43C)[C@@H]2[C@]1(C)O` [Compound 8, euscaphic acid], for which the IC50 worked out at 0.67 ± 0.09 mM.

Consider `C[C@@H]1CC[C@]2(C(=O)O[C@@H]3O[C@H](CO)[C@@H](O)[C@H](O)[C@H]3O)CC[C@]3(C)C(=CCC4[C@@]5(C)C[C@@H](O)[C@@H](O)C(C)(C)C5CC[C@]43C)C2[C@@]1(C)O` (some centres unmarked) [Compound 9, kaji-ichigoside Fl], for which the IC50 came to 3.1 ± 0.24 mM.

For the compound `CC1(C)CC[C@]2(C(=O)O[C@@H]3O[C@H](CO)[C@@H](O)[C@H](O)[C@H]3O)CC[C@]3(C)C(=CCC4[C@@]5(C)C[C@@H](O)[C@H](O)C(C)(C)C5CC[C@]43C)C2[C@H]1O` (some centres unmarked) [Compound 10, 24-deoxysericoside], the IC50 stood at 3.52 ± 0.16 mM.

Consider `C[C@@H]1CC[C@]2(C(=O)O)CC[C@]3(C)C(=CCC4[C@@]5(C)CC[C@H](OC(=O)C=Cc6ccc(O)cc6)C(C)(C)C5CC[C@]43C)C2[C@@H]1C` (some centres unmarked) [Compound 12, p-coumaroylursolic acid], for which the IC50 was found to be 0.62 ± 0.06 mM.

On to `CC1CCC2(C(=O)OC3OC(CO)C(O)C(O)C3O)CCC3(C)C(=CCC4C5(C)CCC(OC6OCC(O)C(O)C6O)C(C)(C)C5CCC43C)C2C1(C)O` (centres unmarked) [Compound 13, ziyu-glycoside I], for which the IC50 was found to be 3.62 ± 0.21 mM.

As for `C=C1C(C)CCC2(C(=O)OC3OC(CO)C(O)C(O)C3O)CCC3(C)C(=CCC4C5(C)CCC(OC6OCC(O)C(O)C6O)C(C)(C)C5CCC43C)C12` [Compound 14, 3β-[(α-L-arabinopyranosyl)oxy] urs-12,19(29)-dien-28-oic acid 28-β-D-glucopyranosyl ester], the IC50 stood at 2.87 ± 0.06 mM.

As for `C[C@@H]1CC[C@]2(C(=O)O)CC[C@]3(C)C(=CC[C@@H]4[C@@]5(C)CC[C@H](O)C(C)(C)[C@@H]5CC[C@]43C)[C@@H]2[C@]1(C)O` [Compound 15, pomolic acid], the IC50 stood at 1.84 ± 0.12 mM.
